Experimental data as given in ChEMBL document CHEMBL1914370, “A Pd-mediated new strategy to functionalized 2-aminochromenes: their in vitro evaluation as potential anti tuberculosis agents” (Bioorg Med Chem Lett, 2011).

Test system: Mycobacterium tuberculosis H37Rv
Test: Inhibition of Mycobacterium tuberculosis H37Rv chorismate mutase expressed in Escherichia coli BL21 (DE3) assessed as conversion of chorismate to prephenate at 50 uM after 5 mins by spectrophotometry

Compared with `CCCCC#Cc1ccccc1C1C(C#N)=C(N)Oc2c1ccc1ccccc21` (centres undefined), `CCCCCCC#Cc1ccccc1C1C(C#N)=C(N)Oc2c1ccc1ccccc21` (centres undefined) is lower in inhibition: 57% for the first, 55% for the second.

First: N#CC1=C(N)Oc2c(ccc3ccccc23)C1c1cccc(C#CC2(O)CCCCC2)c1 (centres undefined)
Second: N#CC1=C(N)Oc2c(ccc3ccccc23)C1c1ccccc1C#CC1(O)CCCCC1 (centres undefined)
The inhibition of the first is higher: 28% for the first, 24% for the second.

First: CCCCCCCCC#Cc1ccccc1C1C(C#N)=C(N)Oc2c1ccc1ccccc21 (centres undefined)
Second: N#CC1=C(N)Oc2c(ccc3ccccc23)C1c1cccc(C#CCCCO)c1 (centres undefined)
The inhibition of the first is higher: 50% for the first, 32% for the second.

Going from `CCOC(=O)/C=C/c1cccc(C2C(C#N)=C(N)Oc3ccc4ccccc4c32)c1` (centres undefined) to `COC(=O)/C=C/c1cccc(C2C(C#N)=C(N)Oc3ccc4ccccc4c32)c1` (centres undefined), the inhibition rises from 30% to 33%.

Going from `CC(C)(C)OC(=O)/C=C/c1cccc(C2C(C#N)=C(N)Oc3ccc4ccccc4c32)c1` (centres undefined) to `CC(=O)/C=C/c1cccc(C2C(C#N)=C(N)Oc3ccc4ccccc4c32)c1` (centres undefined), the inhibition falls from 64% to 10%.

Going from `N#CC1=C(N)Oc2ccc3ccccc3c2C1c1cccc(C#CCCCO)c1` (centres undefined) to `N#CC1=C(N)Oc2ccc3ccccc3c2C1c1cccc(C#CCCO)c1` (centres undefined), the inhibition falls from 70% to 69%.

Test system: not listed separately
Test: (§1) Inhibition of Mycobacterium tuberculosis H37Rv chorismate mutase expressed in Escherichia coli BL21 (DE3) assessed as conversion of chorismate to prephenate after 5 mins by spectrophotometry

For `N#CC1=C(N)Oc2ccc3ccccc3c2C1c1cccc(C#CCCCO)c1` (centres undefined), the IC50 was 15.6 µM.

Test system: Mycobacterium tuberculosis H37Rv
Test: as §1

In the case of `N#CC1=C(N)Oc2ccc3ccccc3c2C1c1cccc(C#CCCCO)c1` (centres undefined), the inhibition is reported as “Dose-dependent effect”.
